# Data from patent US6730666B1, “Pharmaceutical compositions comprising porphyrins and some novel porphyrin derivatives” (Yeda Research and Development Co. Ltd., priority 1998, dated 2004).
# What was measured:
# [1] = target: T1, flt-1 VEGF receptor AP fusion protein (Homo sapiens, UniProt P17948); assay: Binding of soluble VEGF receptor flt-1-AP fusion protein to immobilized VEGF; conditions: FIG. 10B; read-out: IC50, inhibition of flt-1-AP binding to immobilized VEGF
# T1 construct: soluble VEGF receptor flt-1-AP fusion protein; made in house
# Excerpt: ix) Binding of soluble VEGF receptor alkaline phosphatase fusion protein to immobilized VEGF. The flt-1 VEGF receptor was expressed as a fusion protein with AP as previously described (Roeckl et al, 1998) and tested for its binding capacity to immobilized VEGF as described in method (ii) above for the FGF receptor.
# [2] = system: NIH 3T3 cells expressing signal peptide bFGF; assay: Tumor formation induced by signal peptide bFGF expressing NIH 3T3 cells in nude mice; format: in vivo, Balb/C nude mice; conditions: free P1, 25 μg/g of body mass IP twice a week, after 4 weeks
# Procedure: (v) Inhibition by porphyrins of tumor formation induced by signal peptide bFGF expressing cells NIH 3T3 cells expressing signal peptide bFGF were injected subcutaneously to Balb/C nude mice as described (Yayon and Klagsbrun, 1990). Porphyrin/corrole compound at 25 μg/g of body mass was injected IP (intraperitoneally) twice a week and after 4 weeks the tumor size was measured.
# After establishing the ability of P1 to inhibit FGF biological activity in vitro, the capacity of P1 to inhibit bFGF-induced tumor growth and metastasis was evaluated in vivo. First, the inhibition of tumor growth induced by signal peptide bFGF in a nude mice model was measured (Methods, section (v)). Upon addition of a signal peptide residue to bFGF, the protein is capable of transforming NIH 3T3 cells which, when injected to nude mice, grow and form a tumor Rayon & Klagsbrun, 1990). NIH 3T3 cells expressing signal peptide bFGF were injected subcutaneously to Balb/C nude mice, and P1 either free or liposome incorporated (as described by Jori and Reddi, 1993) (25 μg/g of body mass) were given twice a week by intraperitoneal injection.
# [3] = target: EGF tyrosine kinase receptor (Homo sapiens, UniProt P00533); assay: Binding of EGF to its high affinity tyrosine kinase receptor
# [4] = target: T2, FGFR-3 (Homo sapiens, UniProt P22607); assay: FGFR-3 tyrosine phosphorylation immunoblot (FGF-9 induced); format: cell-based; conditions: FIG. 14
# T2 construct: expressed in transfected cells; host or cells: CHO cells (mutant 745)
# Procedure: (viii) Immunoblots. To the overnight serum-starved cells (2 plates for each treatment), 500 μl of F12^++ medium were added which either contained or not the respective porphyrin or corrole compound in a final concentration of […] for 40 min at 37° C. One of the two plates of each treatment was then stimulated with FGF9 (+) (75 ng/ml) and to the second plate only medium (−) was added for 10 min at 37° C. The cells were washed twice with PBS. 600 μl of SBN lysis buffer containing 1% NP-40 and 1 mM vanadate were added and left on ice for 10 min. The plates were then scraped and left on ice for additional 10 min. The lysate was span down in Eppendorf centrifuge for 15 min, 15000 rpm at 4° C. The supernatants were kept and Bradford protein determinant on assay was performed in the samples. 500 μg protein from each sample were taken for immunoprecipitation with 7.5 μl antibody against FGFR-3, 4 hr at 4° C.
# In order to measure the ability of the porphyrins to inhibit the receptor activation on an enzymatic level as well, FGFR-3 tyrosine phosphorylation was measured in the presence of P16, as described in Methods, section (viii).
# T2 sequence (P22607 23-806, species assumed): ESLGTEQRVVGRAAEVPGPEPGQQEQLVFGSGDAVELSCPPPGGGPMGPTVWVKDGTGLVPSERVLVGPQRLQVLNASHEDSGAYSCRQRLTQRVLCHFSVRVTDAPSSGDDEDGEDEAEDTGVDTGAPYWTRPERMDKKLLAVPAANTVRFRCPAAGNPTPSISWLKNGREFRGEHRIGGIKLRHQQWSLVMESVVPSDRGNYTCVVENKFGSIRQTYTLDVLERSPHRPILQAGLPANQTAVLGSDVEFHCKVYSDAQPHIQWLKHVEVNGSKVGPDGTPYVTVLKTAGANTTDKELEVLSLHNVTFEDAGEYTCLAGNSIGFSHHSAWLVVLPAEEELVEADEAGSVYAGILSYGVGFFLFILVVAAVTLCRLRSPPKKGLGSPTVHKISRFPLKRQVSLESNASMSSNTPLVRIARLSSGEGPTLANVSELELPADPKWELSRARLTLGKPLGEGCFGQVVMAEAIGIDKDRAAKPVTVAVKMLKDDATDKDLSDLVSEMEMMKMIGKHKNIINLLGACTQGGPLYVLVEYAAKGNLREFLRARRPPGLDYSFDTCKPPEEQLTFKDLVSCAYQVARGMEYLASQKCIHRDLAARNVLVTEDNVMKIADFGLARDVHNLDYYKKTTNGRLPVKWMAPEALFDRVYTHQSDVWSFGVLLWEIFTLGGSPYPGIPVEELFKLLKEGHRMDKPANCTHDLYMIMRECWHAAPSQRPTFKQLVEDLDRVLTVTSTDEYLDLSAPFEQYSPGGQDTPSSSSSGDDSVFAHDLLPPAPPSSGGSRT
# [5] = target: T2, FGFR-3; assay: Binding of 125I-FGF9 to CHO cells transfected with FGFR-3; conditions: FIG. 12
# Procedure: CHO mutant cells-745 expressing FGFR-3 were incubated for 90 min at 4° C. in the presence of increasing concentrations of the porphyrins, with 1 μg/ml of heparin and ^125I-FGF9 (2 ng/ml). The binding medium was discarded and the cells were washed with ice cold DMEM/BSA. To determine receptor binding of ^125I-FGF9, the cells were incubated in cold PBS (pH 4) containing 1.6M NaCl and 25 mM HEPES, and the cell extract was counted in a γ-counter.
# (iv) Binding of ^125I-bFGF and ^125I-FGF9 to cells. Confluent cultures of CHO cells expressing FGFR-1(Yayon et al, 1991) or FGFR-3 (Hecht et al, 1995) in 24-well plates (Falcon) were precooled and washed twice with cold DMEM supplemented with 20 mM Hepes (pH 7.5) and 0.1% bovine serum albumin (DMEM/BSA). They were then incubated for 1.5 h at 4° C. with ^125I-bFGF (2 ng/ml) and increasing concentrations of porphyrin/corrole compound. The binding medium was discarded and the cells were washed once with ice-cold DMEM/BSA and twice with cold PBS (pH 7.5) containing 1.6M NaCl. […] Non-specific binding was determined in the presence of a 100-fold excess of unlabeled bFGF.
# [6] = target: T3, FGFR-3 (Homo sapiens, UniProt P22607); assay: Binding of 125I-FGF9 to immobilized soluble FGFR-3 (FR-3-AP); conditions: FIG. 11
# T3 construct: soluble FGFR-3 ectodomain alkaline phosphatase fusion protein (FR-3-AP); made in house; host or cells: NIH 3T3 cells (conditioned medium)
# T3 sequence (P22607 23-375 limits assumed): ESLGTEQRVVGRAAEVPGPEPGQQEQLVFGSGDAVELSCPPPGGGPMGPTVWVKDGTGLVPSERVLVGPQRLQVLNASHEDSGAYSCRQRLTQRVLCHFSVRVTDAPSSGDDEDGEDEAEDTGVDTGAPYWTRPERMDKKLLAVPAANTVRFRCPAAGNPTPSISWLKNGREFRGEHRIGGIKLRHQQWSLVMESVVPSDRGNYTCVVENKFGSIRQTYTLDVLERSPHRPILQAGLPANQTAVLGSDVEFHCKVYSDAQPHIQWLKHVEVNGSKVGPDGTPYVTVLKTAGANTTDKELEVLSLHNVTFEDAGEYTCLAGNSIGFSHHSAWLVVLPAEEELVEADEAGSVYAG
# Procedure: Incubations were performed in the presence of 100 ng/ml heparin and increasing concentrations of porphyrins. […] Results represent the mean value in one of at least two independent experiments.
# (iii) Binding of ^125I-bFGF or ^125I-FGF9 to s luble FGFR-1 or FGFR-3. Conditioned medium from NIH 3T3 cells secreting soluble FRAP or FGFR-3 FR-3-AP, was incubated for 45 min at room temperature with rabbit anti-human placental AP antibodies (generated as described in Ornitz et al, 1991) prebound to agarose-protein A beads Pierce). The FGFR-1 or FGFR-3-coupled beads were washed three times with 1 ml HNTG and incubated with 2 ng/ml of ^125I-FGF, 1 μg/ml of heparin and porphyrin/corrole compound at different concentrations for 1 h at room temperature. High affinity-bound ^125I-bFGF was determined by counting of the samples in a γ-counter.
# Thus, the compounds were tested for their capacity to inhibit binding of a soluble FGFR-3 ectodomain alkaline phosphatase fusion protein (FR-3-AP) to FGF-9, utilizing a cell free system, similar to the one described for FGFR-1 in Example 1 above, and measuring the binding of radiolabeled ^125I-FGF-9 to soluble FGFR-3.
# Chain of EGF tyrosine kinase receptor (P00533 25-1210): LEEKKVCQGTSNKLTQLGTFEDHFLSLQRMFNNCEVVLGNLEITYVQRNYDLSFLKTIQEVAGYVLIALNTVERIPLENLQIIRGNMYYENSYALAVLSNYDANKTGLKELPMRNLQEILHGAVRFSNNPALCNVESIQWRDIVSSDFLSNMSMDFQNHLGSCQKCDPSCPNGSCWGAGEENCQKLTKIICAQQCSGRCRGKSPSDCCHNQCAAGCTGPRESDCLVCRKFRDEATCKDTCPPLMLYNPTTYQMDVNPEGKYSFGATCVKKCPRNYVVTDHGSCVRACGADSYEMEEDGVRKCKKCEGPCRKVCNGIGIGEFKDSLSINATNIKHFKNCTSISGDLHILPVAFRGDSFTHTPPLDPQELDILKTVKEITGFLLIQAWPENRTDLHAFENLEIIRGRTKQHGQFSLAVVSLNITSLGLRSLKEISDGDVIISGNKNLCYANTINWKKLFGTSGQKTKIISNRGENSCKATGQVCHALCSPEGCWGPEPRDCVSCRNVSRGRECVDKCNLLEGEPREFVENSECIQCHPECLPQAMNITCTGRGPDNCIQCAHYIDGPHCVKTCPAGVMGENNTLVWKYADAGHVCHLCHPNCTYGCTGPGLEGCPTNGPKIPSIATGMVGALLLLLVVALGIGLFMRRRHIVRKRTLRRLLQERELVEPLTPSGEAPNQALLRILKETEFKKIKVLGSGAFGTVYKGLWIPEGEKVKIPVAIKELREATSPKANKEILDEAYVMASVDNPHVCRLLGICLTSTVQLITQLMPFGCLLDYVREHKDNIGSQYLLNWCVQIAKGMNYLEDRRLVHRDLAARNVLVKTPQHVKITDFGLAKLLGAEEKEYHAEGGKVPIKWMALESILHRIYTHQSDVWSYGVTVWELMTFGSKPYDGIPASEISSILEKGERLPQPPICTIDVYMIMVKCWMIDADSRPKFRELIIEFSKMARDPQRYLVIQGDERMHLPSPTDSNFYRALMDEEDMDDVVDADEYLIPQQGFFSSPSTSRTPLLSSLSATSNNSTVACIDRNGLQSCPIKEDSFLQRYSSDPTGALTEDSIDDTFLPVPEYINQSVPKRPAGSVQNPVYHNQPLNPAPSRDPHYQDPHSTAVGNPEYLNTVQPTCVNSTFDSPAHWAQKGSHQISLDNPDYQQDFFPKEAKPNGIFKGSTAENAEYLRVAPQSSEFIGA
# T1 sequence (P17948 27-758 limits assumed): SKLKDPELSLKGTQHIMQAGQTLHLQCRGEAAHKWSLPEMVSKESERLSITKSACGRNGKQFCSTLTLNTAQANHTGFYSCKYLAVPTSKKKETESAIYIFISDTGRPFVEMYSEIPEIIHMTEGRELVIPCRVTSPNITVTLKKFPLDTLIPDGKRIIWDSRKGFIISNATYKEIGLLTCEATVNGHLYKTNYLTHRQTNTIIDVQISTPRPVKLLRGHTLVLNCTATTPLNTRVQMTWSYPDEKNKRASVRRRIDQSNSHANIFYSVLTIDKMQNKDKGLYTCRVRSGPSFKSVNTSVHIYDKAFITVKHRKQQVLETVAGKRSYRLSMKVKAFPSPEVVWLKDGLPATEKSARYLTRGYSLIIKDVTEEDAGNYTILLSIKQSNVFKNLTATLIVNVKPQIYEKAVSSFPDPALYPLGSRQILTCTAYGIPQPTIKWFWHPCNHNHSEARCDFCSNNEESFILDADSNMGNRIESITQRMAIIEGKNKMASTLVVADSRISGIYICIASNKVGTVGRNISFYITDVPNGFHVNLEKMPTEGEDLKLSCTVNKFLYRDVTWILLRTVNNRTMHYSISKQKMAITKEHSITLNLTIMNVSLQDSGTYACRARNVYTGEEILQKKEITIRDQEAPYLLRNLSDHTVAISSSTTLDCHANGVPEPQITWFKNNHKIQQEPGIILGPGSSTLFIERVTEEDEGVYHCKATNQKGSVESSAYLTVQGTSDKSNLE
Compound,IC50 [1],"Inhibition of tumor formation in nude mice, in words [2]",Inhibition of EGF binding to its receptor [3],Effect on FGFR-3 tyrosine phosphorylation [4],"IC50, FGF-9 binding in the cellular receptor system [5]","Relative potency in FGF-9/FGFR-3 soluble receptor assay, in words [6]"
"C[n+]1ccc(-c2c3nc(c(-c4cc[n+](C)cc4)c4ccc([nH]4)c(-c4cc[n+](C)cc4)c4nc(c(-c5cc[n+](C)cc5)c5ccc2[nH]5)C=C4)C=C3)cc1 [Compound P1, 5,10,15,20-Tetrakis(N-methyl-4-pyridylium)-21H,23H-porphine tetra-p-tosylate]",~40 nM,clear inhibition of tumor formation,does not inhibit,,,
"C[n+]1ccc(-c2c3nc(c(-c4cc[n+](C)cc4)c4ccc([nH]4)c(-c4c(F)c(F)c(F)c(F)c4F)c4nc(c(-c5cc[n+](C)cc5)c5ccc2[nH]5)C=C4)C=C3)cc1.[I-].[I-].[I-] [Compound P16, 5-Pentafluorophenyl-10,15,20-tris(N-methyl-4-pyridylium)-21H,23H-porphine triiodide]",,,,"reduced both the basal and, to a much greater extent, the FGF-9 induced phosphorylation of FGFR-3",0.1 µg/mL,more potent
